Test results reported in patent US20230364057A1, “BACTERIAL DNA GYRASE INHIBITORS AND METHODS OF USE THEREOF” (THE FLORIDA INTERNATIONAL UNIVERSITY BOARD OF TRUSTEES, priority 2022, published 2023).

What was measured:
E. coli DNA gyrase [1] = molecular target: T1, E. coli DNA gyrase (Escherichia coli (strain K12), UniProt P0AES4+P0AES6); test: biochemical; assay type: biochemical
E. coli DNA gyrase [2] = molecular target: T1, E. coli DNA gyrase; test: Agarose gel-based DNA gyrase inhibition assay; assay type: biochemical
Method: 100 ng of DNA gyrase was used to supercoil the rx pAB1 in the presence of different concentrations of a gyrase inhibitor. […] Samples were analyzed by electrophoresis in 1% w/v agarose gels followed by ethidium bromide staining and photographed under UV light.

[3] = IC50 ([…]-50 µM), bin of Table 2
[4] = IC50 (50-200 µM), bin of Table 2

Structure (SMILES)	inhibition of E. coli DNA gyrase activities (E. coli DNA gyrase [2]; 50 µM of compounds)	inhibition of E. coli DNA gyrase activities (E. coli DNA gyrase [2]; 200 µM of compounds)	also measured
O=C(O)CCCN1C(=O)C(=Cc2ccc(-c3nc4ccccc4s3)o2)SC1=S (single isomer, unassigned) [Compound 41]			IC50 (E. coli DNA gyrase [1]; IC50 (≤15 µM) IC50, Table 2): 1.48 µM
O=C(/C=C/c1ccc(O)c(O)c1)O[C@@H]1CC(O)(C(=O)O)C[C@@H](OC(=O)/C=C/c2ccc(O)c(O)c2)C1O (stereo partly shown) [3,5-dicaffeoylquinic acid, reference compound]			inhibition of E. coli DNA gyrase activities (E. coli DNA gyrase [1]): strongly inhibit
CCOC(=O)c1cc(-c2ccc(N3CCOCC3)cc2)nn1-c1ccccc1C(=O)O [Compound 7]	completely inhibited	completely inhibited	IC50 (E. coli DNA gyrase [1]; [3]): 25 to 50 µM
COc1ccc(C2=NN(c3nc(-c4ccccc4)c(CC(=O)O)s3)C(c3ccco3)C2)cc1 (stereo not shown) [Compound 10]		completely inhibited	IC50 (E. coli DNA gyrase [1]; [4]): 50 to 200 µM
N#CC(=Cc1ccc(C(=O)O)cc1)c1nc2sc3c(c2c(=O)[nH]1)CCCC3 [Compound 12]	completely inhibited	completely inhibited	IC50 (E. coli DNA gyrase [1]; [3]): 25 to 50 µM
Cc1cc(C)c(-c2nc3ccccc3s2)[nH]1 [Compound 13]		almost completely inhibited	IC50 (E. coli DNA gyrase [1]; [4]): 50 to 200 µM
O=C(Nc1nc2cc3c(cc2s1)OCO3)C1CC1 [Compound 15]		completely inhibited	IC50 (E. coli DNA gyrase [1]; [4]): 50 to 200 µM
CCc1ccc(S(=O)(=O)/N=C2/C=C(Nc3cccc(C(=O)O)c3)C(=O)c3ccccc32)cc1 [Compound 17]		completely inhibited	IC50 (E. coli DNA gyrase [1]; [4]): 50 to 200 µM
Cc1n[nH]c(SC(Cc2ccc(-c3cccc(Cl)c3)o2)C(=O)O)n1 (stereo not shown) [Compound 18]	completely inhibited	completely inhibited	IC50 (E. coli DNA gyrase [1]; [3]): 25 to 50 µM
CCc1ccc(OCC(=O)/N=c2/[nH]nc(-c3ccco3)s2)cc1 [Compound 22]		completely inhibited	IC50 (E. coli DNA gyrase [1]; [4]): 50 to 200 µM
O=C(O)CCN1C(=O)/C(=C/c2ccc(-c3nc4ccccc4s3)o2)SC1=S [Compound 27]	completely inhibited	completely inhibited	
CC(C)(CS(=O)(=O)[O-])NC(=O)CC[N+](C)(C)CCO [Compound 42]	completely inhibited	completely inhibited	
CN1C(=O)/C(=C\c2ccc(-c3ccccc3)o2)SC1=S [Compound 57]		almost completely inhibited	
Cc1cc(C)c2c(c1)C(/N=N/c1cc([N+](=O)[O-])ccc1C)C(O)=N2 (stereo not shown) [Compound 114]	completely inhibited		
Cc1cccc2c1N=C(O)C2/N=N/c1ccc(S(N)(=O)=O)cc1 (stereo not shown) [Compound 116]	completely inhibited		
Cc1cc(C)c2c(c1)C(=NNc1ccc(C)c(Cl)c1)C(O)=N2 [Compound 132]	completely inhibited		
N#C/C(=C\c1coc2ccc(O)cc2c1=O)C(=O)/N=c1\[nH]c2ccccc2s1 [Compound 165]	completely inhibited		
O=C(O)C(c1ccccc1)N1C(=O)/C(=C\c2ccc(-c3cccc(Cl)c3)o2)SC1=S (stereo not shown) [Compound 176]	completely inhibited		
O=C1/C(=C\c2ccc(O)c([N+](=O)[O-])c2)SC(=S)N1Cc1ccccc1 [Compound 192]	completely inhibited		
O=C1NC(=S)S/C1=C/c1cc(Cl)cc(Cl)c1O [Compound 207]	inhibited	completely inhibited	

Structure (SMILES)	inhibition of E. coli DNA gyrase activities (E. coli DNA gyrase [2]; 50 µM of compounds)	inhibition of E. coli DNA gyrase activities (E. coli DNA gyrase [2]; 200 µM of compounds)	also measured
Brc1ccc2c(c1)-c1ccccc1C1=NCCN12 [Compound 217]		completely inhibited	
CN(C)c1ccc(/C=c2\c3ccccc3n3c2cc(-c2ccccc2)[n+]3C)cc1 [Compound 236]	completely inhibited	completely inhibited	
COc1ccc2c(c1)/c(=C\c1ccc(N(C)C)cc1)c1cc(-c3ccccc3)[n+](C)n12.O=S(=O)([O-])C(F)(F)F [Compound 237]		completely inhibited	
CC1=NN(c2nc(N)nc(/C(C#N)=C\c3ccc([N+](=O)[O-])o3)n2)C(C)(C)C1 [Compound 238]		completely inhibited	
CCOC(=O)c1cc2c(=Cc3ccc(N(C)C)cc3)c3ccccc3n2[n+]1C.O=S(=O)([O-])C(F)(F)F [Compound 239]		completely inhibited	
COc1cccc2nc3c(C(=O)NCCN(C)C)cccc3cc12.Cl [Compound 240]		completely inhibited	
CN(C)CCNC(=O)c1cccc2nc3cccc(F)c3nc12.Cl [Compound 241]		completely inhibited	
Nc1ccc2cc3ccc(N)cc3nc2c1 [Compound 246]		completely inhibited	
Nc1c2ccccc2nc2ccccc12 [Compound 247]		completely inhibited	
CN1/C(=C/c2cc[n+](C)c3ccccc23)Sc2ccccc21.Cc1ccc(S(=O)(=O)[O-])cc1 [Compound 248]		completely inhibited	
CN(C)c1ccc2cc3ccc(N(C)C)cc3nc2c1 [Compound 249]		completely inhibited	
CCOc1ccc2nc3cc(N)ccc3c(N)c2c1 [Compound 257]		completely inhibited	
CSC1SC2C(=O)N(C)C(C(C)C)C(=O)OCC(NC(=O)c3cnc4ccccc4n3)C(=O)NC(C)C(=O)N(C)C1C(=O)N(C)C(C(C)C)C(=O)OCC(NC(=O)c1cnc3ccccc3n1)C(=O)NC(C)C(=O)N2C (stereo not shown) [Compound 258]		completely inhibited	
O=C(O[C@@H]1Cc2c(O)cc(O)cc2O[C@@H]1c1cc(O)c(O)c(O)c1)c1cc(O)c(O)c(O)c1 [EGCG, epigallocatechin gallate, reference compound]			inhibition of E. coli DNA gyrase activities (E. coli DNA gyrase [1]): strongly inhibit
CN1C[C@H](CNC(=O)OCc2ccccc2)C[C@@H]2c3cccc4c3c(cn4C)C[C@H]21 [Metergoline, metergoline, reference compound]			inhibition of E. coli DNA gyrase activities (E. coli DNA gyrase [1]): inhibits gyrase activities at 100 and 200 µM
O=C(OC[C@H]1O[C@@H](OC(=O)c2cc(O)c(O)c(OC(=O)c3cc(O)c(O)c(O)c3)c2)[C@H](OC(=O)c2cc(O)c(O)c(OC(=O)c3cc(O)c(O)c(O)c3)c2)[C@@H](OC(=O)c2cc(O)c(O)c(OC(=O)c3cc(O)c(O)c(O)c3)c2)[C@@H]1OC(=O)c1cc(O)c(O)c(OC(=O)c2cc(O)c(O)c(O)c2)c1)c1cc(O)c(O)c(OC(=O)c2cc(O)c(O)c(O)c2)c1 [Tannic acid, tannic acid]			IC50 (E. coli DNA gyrase [2]; gel-based, read-out: IC50 against E. coli DNA gyrase): 1 µM
O=c1oc2c(O)c(O)cc3c(=O)oc4c(O)c(O)cc1c4c23 [ellagic acid, reference compound]			inhibition of E. coli DNA gyrase activities (E. coli DNA gyrase [1]): strongly inhibit
Cc1c2cc(O)c(=O)cc-2oc2cc(O)c(O)cc12 [methyl fluorone black]			IC50 (E. coli DNA gyrase [1]; read-out: IC50 against E. coli DNA gyrase): < 10 µM
O=c1ccc2cc3ccoc3cc2o1 [psoralen, reference compound]			inhibition of E. coli DNA gyrase activities (E. coli DNA gyrase [1]): is not a gyrase inhibitor
O=C(O)c1cc(O)c2c(c1)C(=O)c1cccc(O)c1C2=O [rhein]			inhibition of E. coli DNA gyrase activities (E. coli DNA gyrase [1]): potently inhibited
